Consider eleven compounds from PMC4669143, “Wild Edible Fruit of Prunus nepalensis Ser. (Steud), a Potential Source of Antioxidants, Ameliorates Iron Overload-Induced Hepatotoxicity and Liver Fibrosis in Mice” (PLoS ONE, 2015).

Test [1] can be described thus: Singlet oxygen scavenging assay. Type of test: biochemical. The settings on record: mean ± S.D., n = 6.
Test [2] in a line: Fe2+ chelating activity assay. Format: biochemical. As to conditions: for Iron chelation activity (in words): Fig 12C. On the procedure: (§1) The Fe^2+ chelating ability was determined as described earlier. […] The densitometric analysis of the DNA bands was performed using ImageJ 1.47v tool by the software company NIH, USA. The DNA supercoil protection capacity of the fruit extract was expressed as the [P]50 value, the amount of sample required for 50% protection. The degree of inhibition of Fe^2+-mediated lipid peroxidation was assessed by estimating the TBARS by the method of Ghate et al. 2013 [9] using freshly prepared brain homogenates of Swiss albino mouse brains. The results are expressed as a percentage of inhibition.

Test [3] is described as follows: Hypochlorous acid scavenging assay. Format: biochemical. The settings on record: mean ± S.D., n = 6.
Test [4] is described as follows: DPPH radical scavenging assay. The settings on record: mean ± S.D., n = 6. Format: biochemical. Here is the method:
Standard methods were used to evaluate the Fe^3+-reducing capacity of the extract. The DPPH (2,2-diphenyl-1-picrylhydrazyl) scavenging potential of the extract was investigated according to Ghate et al, 2013 [9]. The scavenging percentage of PNME was evaluated from the values of the control and the test samples.

Test [5] can be described thus: Peroxynitrite scavenging assay. As to conditions: mean ± S.D., n = 6. Format: biochemical.
Test [6] is described as follows: Hydroxyl radical scavenging assay. Format: biochemical. As to conditions: mean ± S.D., n = 6.
A short description of test [7]: Superoxide anion scavenging assay. Format: biochemical. The settings on record: mean ± S.D., n = 6.
The subject of test [8] is Fe2+-mediated lipid peroxidation. Put plainly: Inhibition of Fe2+-mediated lipid peroxidation (TBARS) in brain homogenates. Format: biochemical, Swiss albino mouse. As to conditions: mouse brain homogenate, mean ± S.D., n = 6. On the procedure:
as §1

Test [9] has as its system iron overload induced hepatotoxicity in mice. Put plainly: Serum markers in iron-dextran overloaded mice after oral therapy. Format: in vivo, Swiss albino mice. As to conditions: desirox 20 mg/kg b.w. oral. On the procedure:
(one dose every alternative days).
Aspartate amino transferase (ASAT), alanine amino transferase (ALAT), and billirubin levels in the serum were evaluated using commercially available kits from Merck (India). Moreover, alkaline phosphatase (ALP) levels in the serum were measured by a kit procured from Sentinel Diagnostics, Italy.

≈ marks a conversion by molar mass, not a printed value.

Take `O=C(O)CCCC[C@@H]1CCSS1` (racemic) [Lipoic acid]: in test [1], the “IC50 Singlet oxygen (1O2) scavenging” value is 46.15 ± 1.16 µg/mL (≈ 224 µM). With `O=C1O[C@H]([C@@H](O)CO)C(O)=C1O` [Ascorbic acid], the “Iron chelation activity (in words)” value in [2] is on record as “failed to show any activity”. Also, the “IC50 Hypochlorous acid (HOCl) scavenging” value in test [3] was 235.96 ± 5.75 µg/mL (≈ 1340 µM). In addition, the “IC50 DPPH scavenging” value in test [4] was determined as 5.29 ± 0.28 µg/mL (≈ 30 µM). As to `O=C(O)CN(CCN(CC(=O)O)CC(=O)O)CC(=O)O` [EDTA, Ethylenediamine tetraacetic acid], the “IC50 Iron chelating activity” value in test [2] (mean ± S.D., n = 6) turned out to be 1.27 ± 0.05 µg/mL (≈ 4.35 µM). As for `O=C(O)c1cc(O)c(O)c(O)c1` [Gallic acid], the “IC50 Peroxynitrite (ONOO-) scavenging” value in [5] was 876 ± 570 µg/mL (≈ 5150 µM). `OC[C@@H](O)[C@@H](O)[C@H](O)[C@H](O)CO` [Mannitol]: in [6], the “IC50 Hydroxyl radical (OH•) scavenging” value turned out to be 571.45 ± 20.12 µg/mL (≈ 3140 µM). As for `O=c1c(O)c(-c2ccc(O)c(O)c2)oc2cc(O)cc(O)c12` [Quercetin], the “IC50 Superoxide anion (O2•−) scavenging” value in test [7] is 42.06 ± 1.35 µg/mL (≈ 139 µM). With `COC(=O)[C@H]1[C@H]2C[C@@H]3c4[nH]c5cc(OC)ccc5c4CCN3C[C@H]2C[C@@H](OC(=O)c2cc(OC)c(OC)c(OC)c2)[C@@H]1OC` [Reserpine, reserpine], in test [2], the “Iron chelation activity (in words)” value was “failed to show any activity”. For the compound `Cc1c(C)c2c(c(C)c1O)CCC(C)(C(=O)O)O2` (stereo not shown) [Trolox, 6-hydroxy-2,5,7,8-tetramethylchroman-2-carboxylic acid], the “IC50 Lipid peroxidation” value in test [8] was 6.76 ± 0.17 µg/mL (≈ 27 µM). On to `O.Oc1cc(O)c2c(c1)O[C@H](c1ccc(O)c(O)c1)[C@@H](O)C2` [catechin], for which, in [2], the “Iron chelation activity (in words)” value was “failed to show any activity”. In [9] (D, change versus blank group B), `O=C(O)c1ccc(-n2nc(-c3ccccc3O)nc2-c2ccccc2O)cc1` [desirox, Deferasirox] showed an ALAT % change of 52.80%, an ALP % change of 84.44%, an ASAT % change of 17.36% and a Bilirubin % change of 10.97%. In addition, in test [9] (serum, 21 days (D)), the ALAT was 23.55±1.09 ^X3Y3 Unit/L, the ALP is on record as 61.01± 2.44 ^X3Y3 Unit/L and the ASAT is listed as 79.35±4.37 ^X1 Y3 Unit/L. Take tannic acid: the “Iron chelation activity (in words)” value in [2] is reported as “most potent iron chelator”.
